The text below walks through data of ChEMBL document CHEMBL1133775, “Potent and selective indolomorphinan antagonists of the kappa-opioid receptor” (J Med Chem, 2000).

Assay [1] in a line: Selectivity ratio, ratio of Ke value of mu to kappa opioid receptor.
Assay [2] deals with Kappa-type opioid receptor (Cavia porcellus) (UniProt P41144). Nature of the assay: Ratio of the IC50 of Kappa receptor agonist, ethylketazocine in the presence of compound in GPI divided by the control IC50. In kind it is functional.
Sequence of Kappa-type opioid receptor (Cavia porcellus) (P41144 whole entry): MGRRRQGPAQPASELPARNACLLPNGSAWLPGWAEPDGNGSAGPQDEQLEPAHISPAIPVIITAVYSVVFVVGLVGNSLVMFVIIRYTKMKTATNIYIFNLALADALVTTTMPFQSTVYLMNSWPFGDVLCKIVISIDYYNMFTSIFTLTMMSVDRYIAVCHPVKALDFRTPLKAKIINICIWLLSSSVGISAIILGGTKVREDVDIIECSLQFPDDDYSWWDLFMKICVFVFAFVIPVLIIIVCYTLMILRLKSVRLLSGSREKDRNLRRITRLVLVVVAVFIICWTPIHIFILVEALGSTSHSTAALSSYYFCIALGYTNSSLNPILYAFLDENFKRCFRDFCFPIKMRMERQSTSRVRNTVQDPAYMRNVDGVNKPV
Assay [3] addresses T1, Opioid receptors; delta & kappa (Homo sapiens) (UniProt P41145+P41143). Nature of the assay: Selectivity ratio, ratio of binding affinity of delta to kappa opioid receptor. In kind it is protein assay.
Assay [4] concerns the target Kappa-type opioid receptor (Cavia porcellus) (UniProt P41144). The experiment in a line: Opioid receptor kappa 1 Antagonism (100 nM) is expressed as (Ke = [antagonist] / (IC50 ratio -1). In kind it is functional.
Assay [5] deals with Mu-type opioid receptor (Rattus norvegicus, UniProt P33535). Nature of the assay: Binding affinity on HEK293 cells transiently transfected with plasmids encoding the rat Opioid receptor mu 1. The assay is classed as cell-based.
Sequence of Mu-type opioid receptor (P33535 whole entry): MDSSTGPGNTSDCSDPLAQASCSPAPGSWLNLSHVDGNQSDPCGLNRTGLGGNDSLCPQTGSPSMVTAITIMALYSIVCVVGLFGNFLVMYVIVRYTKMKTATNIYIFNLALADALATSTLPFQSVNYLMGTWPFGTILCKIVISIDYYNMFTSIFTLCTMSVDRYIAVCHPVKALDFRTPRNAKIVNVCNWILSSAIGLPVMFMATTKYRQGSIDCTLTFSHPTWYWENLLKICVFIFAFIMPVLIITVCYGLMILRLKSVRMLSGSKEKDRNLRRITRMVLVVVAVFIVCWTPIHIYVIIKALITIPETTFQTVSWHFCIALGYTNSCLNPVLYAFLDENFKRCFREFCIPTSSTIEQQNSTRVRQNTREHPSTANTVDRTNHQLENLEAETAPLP
A short description of assay [6]: Selectivity ratio, ratio of Ke value of Kappa to Delta opioid receptor.
Assay [7] concerns the target T2, Opioid receptors; mu & kappa (Homo sapiens) (UniProt P41145+P35372). Nature of the assay: Selectivity ratio, ratio of binding affinity of mu to kappa opioid receptor. The assay is classed as protein assay.
For assay [8], the target named is Delta-type opioid receptor (Rattus norvegicus, UniProt P33533). The experiment in a line: Binding affinity on HEK293 cells transiently transfected with plasmids encoding the rat Opioid receptor delta 1. The assay is classed as cell-based.
Sequence of Delta-type opioid receptor (P33533 whole entry): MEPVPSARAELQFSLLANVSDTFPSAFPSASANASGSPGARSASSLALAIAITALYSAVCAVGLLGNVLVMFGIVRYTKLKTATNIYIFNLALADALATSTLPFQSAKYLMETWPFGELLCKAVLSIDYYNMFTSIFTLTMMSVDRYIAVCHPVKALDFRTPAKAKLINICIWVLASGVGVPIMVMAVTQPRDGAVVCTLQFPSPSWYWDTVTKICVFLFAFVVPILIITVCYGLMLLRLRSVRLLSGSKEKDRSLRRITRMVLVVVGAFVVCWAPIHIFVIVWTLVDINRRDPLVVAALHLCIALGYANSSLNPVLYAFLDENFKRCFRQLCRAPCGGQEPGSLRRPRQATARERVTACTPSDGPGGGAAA
Assay [9] concerns the target Mu-type opioid receptor (Cavia porcellus) (UniProt P97266). Nature of the assay: Opioid receptor mu 1 Antagonism (100 nM) is expressed as (Ke = [antagonist] / (IC50 ratio -1). In kind it is functional.
Assay [10] has the same target. Nature of the assay: Ratio of the IC50 of mu receptor agonist, Morphine in the presence of compound in GPI divided by the control IC50. In kind it is functional.
Assay [11] deals with Delta-type opioid receptor (Mus musculus) (UniProt P32300). Nature of the assay: Ratio of the IC50 of delta receptor agonist, [D-Ala-2, D-Leu5]-enkephalin in the presence of compound in MVD divided by the control IC50. In kind it is functional.
Sequence of Delta-type opioid receptor (Mus musculus) (P32300 whole entry): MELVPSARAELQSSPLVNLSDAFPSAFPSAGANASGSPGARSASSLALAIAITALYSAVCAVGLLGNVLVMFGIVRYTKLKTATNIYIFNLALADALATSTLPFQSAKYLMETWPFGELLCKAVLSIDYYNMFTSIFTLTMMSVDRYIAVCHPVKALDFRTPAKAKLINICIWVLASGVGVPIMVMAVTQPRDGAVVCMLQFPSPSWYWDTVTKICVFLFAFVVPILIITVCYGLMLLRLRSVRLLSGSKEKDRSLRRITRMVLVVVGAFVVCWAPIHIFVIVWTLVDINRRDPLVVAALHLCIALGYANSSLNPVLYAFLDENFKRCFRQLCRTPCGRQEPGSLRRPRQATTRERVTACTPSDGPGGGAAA
In assay [12] the target is Kappa-type opioid receptor (Rattus norvegicus, UniProt P34975). The experiment in a line: Binding affinity on HEK293 cells transiently transfected with plasmids encoding the rat Opioid receptor kappa 1. The assay is classed as cell-based.
Sequence of Kappa-type opioid receptor (P34975 whole entry): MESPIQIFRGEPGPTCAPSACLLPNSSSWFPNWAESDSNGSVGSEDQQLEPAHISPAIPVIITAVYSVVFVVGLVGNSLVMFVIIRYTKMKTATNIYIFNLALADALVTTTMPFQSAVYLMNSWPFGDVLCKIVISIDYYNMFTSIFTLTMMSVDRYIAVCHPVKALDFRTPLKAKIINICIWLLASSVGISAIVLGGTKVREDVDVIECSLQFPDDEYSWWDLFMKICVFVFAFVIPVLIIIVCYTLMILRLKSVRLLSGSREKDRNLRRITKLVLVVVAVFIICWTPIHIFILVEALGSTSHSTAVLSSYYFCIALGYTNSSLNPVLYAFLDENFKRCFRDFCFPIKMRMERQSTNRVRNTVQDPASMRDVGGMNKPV
Assay [13] addresses T2, Opioid receptors; mu & kappa (Homo sapiens). The experiment in a line: Selectivity ratio, ratio of Ke value of Kappa to mu opioid receptor. The assay is classed as protein assay.
The target of assay [14] is T1, Opioid receptors; delta & kappa (Homo sapiens). The experiment in a line: Selectivity ratio, ratio of Ke value of delta to kappa opioid receptor. The assay is classed as protein assay.
The target of assay [15] is Delta-type opioid receptor (Mus musculus) (UniProt P32300). The experiment in a line: Opioid receptor delta 1 Antagonism (100 nM) is expressed as (Ke = [antagonist] / (IC50 ratio -1). The assay is classed as functional.

pKi: −log10 of the molar value. Some results are limits rather than exact numbers.

T1 sequence (P41143 whole entry, looked up): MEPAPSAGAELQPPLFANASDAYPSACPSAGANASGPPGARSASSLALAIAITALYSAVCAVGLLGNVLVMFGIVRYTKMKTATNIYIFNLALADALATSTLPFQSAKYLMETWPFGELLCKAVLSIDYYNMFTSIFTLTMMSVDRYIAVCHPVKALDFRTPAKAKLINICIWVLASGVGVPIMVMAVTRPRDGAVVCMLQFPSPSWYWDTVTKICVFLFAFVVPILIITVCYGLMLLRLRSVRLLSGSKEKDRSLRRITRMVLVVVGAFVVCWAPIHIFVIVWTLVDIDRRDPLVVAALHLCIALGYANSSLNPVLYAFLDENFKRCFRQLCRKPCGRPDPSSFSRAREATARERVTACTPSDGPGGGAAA
T1 sequence (P41145 whole entry, looked up): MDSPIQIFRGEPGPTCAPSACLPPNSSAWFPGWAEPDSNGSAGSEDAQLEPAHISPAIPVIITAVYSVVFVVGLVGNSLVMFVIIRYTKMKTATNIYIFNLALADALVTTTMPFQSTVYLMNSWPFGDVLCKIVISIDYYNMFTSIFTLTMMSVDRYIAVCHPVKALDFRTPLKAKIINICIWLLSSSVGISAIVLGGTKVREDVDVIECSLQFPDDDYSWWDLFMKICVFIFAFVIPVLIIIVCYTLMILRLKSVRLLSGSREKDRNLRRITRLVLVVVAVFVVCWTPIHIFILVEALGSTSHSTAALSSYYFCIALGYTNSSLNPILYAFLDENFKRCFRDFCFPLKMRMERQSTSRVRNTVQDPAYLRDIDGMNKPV
Sequence of Mu-type opioid receptor (Cavia porcellus) (P97266 whole entry): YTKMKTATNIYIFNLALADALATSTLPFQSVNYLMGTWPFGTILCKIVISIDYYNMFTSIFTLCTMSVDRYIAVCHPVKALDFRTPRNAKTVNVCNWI
T2 sequence (P35372 whole entry, looked up): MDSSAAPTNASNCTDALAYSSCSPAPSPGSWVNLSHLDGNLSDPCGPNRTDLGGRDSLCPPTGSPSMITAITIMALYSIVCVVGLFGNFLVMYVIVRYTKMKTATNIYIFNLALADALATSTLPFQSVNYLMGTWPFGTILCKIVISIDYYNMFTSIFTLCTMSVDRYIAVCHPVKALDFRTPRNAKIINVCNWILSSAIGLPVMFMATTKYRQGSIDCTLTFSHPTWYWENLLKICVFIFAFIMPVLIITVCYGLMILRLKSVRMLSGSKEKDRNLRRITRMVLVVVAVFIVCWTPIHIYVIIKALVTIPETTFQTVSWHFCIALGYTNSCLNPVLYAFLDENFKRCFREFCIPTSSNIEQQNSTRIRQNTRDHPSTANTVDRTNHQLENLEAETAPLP
T2 sequence (P41145 whole entry, looked up): as the sequence (P41145 whole entry, looked up) above

Consider `N=C(N)NCc1ccc2[nH]c3c(c2c1)C[C@@]1(O)[C@H]2Cc4ccc(O)c5c4[C@@]1(CCN2CC1CC1)[C@H]3O5`, for which the Ratio in assay [1] was determined as 19; in assay [3], 41; in [6] it was 172; in assay [7], 89. Moreover, the IC50 ratio in assay [2] came out at 172; in assay [10] it was 10.3; in assay [11], 0.88. Besides, the Ke in assay [4] amounted to 0.6 nM; in assay [9], 11 nM. Moreover, the pKi in assay [5] is 7.18; in [8] it was 7.51; in [12] it was 9.13.
On to `C[N+](C)(C)c1ccc2[nH]c3c(c2c1)C[C@@]1(O)C2Cc4ccc(O)c5c4[C@@]1(CCN2CC1CC1)[C@H]3O5`, for which the IC50 ratio in assay [2] is 33.3; in [10], 2.7; in [11] it was 3.6. For the same molecule, in assay [4], the Ke was determined as 3.1 nM. Also, the Ratio in assay [6] worked out at 9.1; in [13], 13.
Consider `NCc1ccc2[nH]c3c(c2c1)C[C@@]1(O)C2Cc4ccc(O)c5c4[C@@]1(CCN2CC1CC1)[C@H]3O5`, for which the Ratio is 1.8 in assay [1] and 0.5 in assay [14]. The IC50 ratio in assay [2] was determined as 3.9; in [10] it was 2.6; in assay [11] it was 6.4. Further, the Ke in assay [4] amounted to 34 nM; in assay [9], 61 nM; in assay [15], 18 nM.
On to `CN1CC[C@]23c4c5ccc(O)c4O[C@H]2c2[nH]c4ccc(N=C(N)N)cc4c2C[C@@]3(O)C1C5`, for which the pKi in assay [5] is 6.06; in assay [8], below 5.00; in assay [12] it was 8.55.
With `CC(=N)NCc1ccc2[nH]c3c(c2c1)C[C@@]1(O)C2Cc4ccc(O)c5c4[C@@]1(CCN2CC1CC1)[C@H]3O5`, the Ratio in assay [1] is 1.4; in assay [6], 17.3. Further, the IC50 ratio was 17.3 in [2], 12.4 in assay [10] and 0.88 in [11]. The Ke in [4] worked out at 6.1 nM; in [9] it was 8.8 nM.
Consider `N#CN=C(N)Nc1ccc2[nH]c3c(c2c1)C[C@@]1(O)C2Cc4ccc(O)c5c4[C@@]1(CCN2CC1CC1)[C@H]3O5`, for which the negative logarithm of the Ki (pKi) is 7.05 in assay [5], 8.02 in assay [8] and 8.35 in assay [12].
For `Oc1ccc2c3c1O[C@H]1c4[nH]c5c(c4C[C@@]4(O)[C@@H](C2)N(CC2CC2)CC[C@]314)C[C@@]1(O)[C@H]2Cc3ccc(O)c4c3[C@@]1(CCN2CC1CC1)[C@H]5O4` [NORBINALTORPHIMINE], the pKi in assay [8] was 7.38; in assay [12], 9.61.
In the case of `CN(C)CCc1ccc2[nH]c3c(c2c1)C[C@@]1(O)C2Cc4ccc(O)c5c4[C@@]1(CCN2CC1CC1)[C@H]3O5`, the values for the IC50 ratio in assay [2], in assay [10] and in assay [11] were 32, 2.4 and 1.8, respectively. Further, in [4], the Ke was found to be 3.2 nM. In addition, the figures for the Ratio in assay [6] and in assay [13] were 18 and 13, respectively.
Regarding `C[N+](C)(C)Cc1ccc2[nH]c3c(c2c1)C[C@@]1(O)C2Cc4ccc(O)c5c4[C@@]1(CCN2CC1CC1)[C@H]3O5`, the Ratio stood at 6.2 in assay [1], 221 in assay [3], 154 in assay [6] and 36 in assay [7]. For the same molecule, the IC50 ratio turned out to be 154 in assay [2], 25.8 in [10] and 0.79 in assay [11]. Besides, the Ke was found to be 0.7 nM in assay [4] and 4 nM in assay [9]. Moreover, the pKi in assay [5] is 7.89; in assay [8], 7.11; in assay [12], 9.45.
For `N#CN/C(N)=N/c1ccc2[nH]c3c(c2c1)C[C@@]1(O)C2Cc4ccc(O)c5c4[C@@]1(CCN2CC1CC1)[C@H]3O5`, the Ratio in assay [1] stood at 5.1; in assay [14], 2.9; in assay [3], 2; in assay [7], 20. Also, the IC50 ratio worked out at 33 in assay [2], 7.2 in assay [10] and 12 in assay [11].
For the molecule `CC(=N)Nc1ccc2[nH]c3c(c2c1)C[C@@]1(O)C2Cc4ccc(O)c5c4[C@@]1(CCN2CC1CC1)[C@H]3O5`, the Ratio turned out to be 15 in assay [1] and 52 in assay [6]. Moreover, the IC50 ratio in [2] came out at 99.4; in assay [10] it was 7.5; in assay [11] it was 1.9. Moreover, the Ke in assay [4] amounted to 1 nM; in [9] it was 16 nM.
`N=C(N)Cc1ccc2[nH]c3c(c2c1)C[C@@]1(O)C2Cc4ccc(O)c5c4[C@@]1(CCN2CC1CC1)[C@H]3O5`: the IC50 ratio in assay [2] came to 46.7; in [10] it was 2.1; in assay [11], 1.8. The Ke in assay [4] was 2.2 nM. The negative-log Ki (pKi) in assay [5] is 7.39; in assay [8], 7.48; in assay [12], 9.67. In assay [6], the Ratio amounted to 26.
On to `NCCc1ccc2[nH]c3c(c2c1)C[C@@]1(O)C2Cc4ccc(O)c5c4[C@@]1(CCN2CC1CC1)[C@H]3O5`, for which the IC50 ratio in assay [2] stood at 48.1; in assay [10] it was 3.2; in assay [11] it was 2.3. For the same molecule, in assay [4], the Ke was 2.1 nM. The Ratio is 21 in assay [6] and 15 in assay [13].
As for `CN(C)Cc1ccc2[nH]c3c(c2c1)C[C@@]1(O)C2Cc4ccc(O)c5c4[C@@]1(CCN2CC1CC1)[C@H]3O5`, the Ratio turned out to be 12 in assay [1], 19 in assay [3], 87 in assay [6] and 44 in [7]. Besides, the figures for the IC50 ratio in assay [2], in assay [10] and in [11] were 125, 11.2 and 1.4, respectively. Besides, the Ke in assay [4] turned out to be 0.8 nM; in assay [9] it was 9.8 nM. The pKi is 7.44 in [5], 7.80 in assay [8] and 9.08 in [12].
`CN(C)c1ccc2[nH]c3c(c2c1)C[C@@]1(O)C2Cc4ccc(O)c5c4[C@@]1(CCN2CC1CC1)[C@H]3O5`: the Ratio was determined as 5.3 in assay [1] and 6.6 in assay [6]. In addition, the IC50 ratio in assay [2] was found to be 15.8; in assay [10], 3.8; in assay [11], 2.4. The Ke in assay [4] came to 6.8 nM; in assay [9] it was 36 nM.
Turning to `N=C(N)N=C(N)Nc1ccc2[nH]c3c(c2c1)C[C@@]1(O)C2Cc4ccc(O)c5c4[C@@]1(CCN2CC1CC1)[C@H]3O5`, the pKi was 7.67 in assay [5], 6.97 in [8] and 9.65 in [12].
As to `N=C(N)c1ccc2[nH]c3c(c2c1)C[C@@]1(O)C2Cc4ccc(O)c5c4[C@@]1(CCN2CC1CC1)[C@H]3O5`, the Ratio in assay [1] amounted to 22; in assay [6], 142. Moreover, the IC50 ratio is 142 in assay [2], 7.2 in assay [10] and 0.3 in assay [11]. Moreover, the Ke in assay [4] came out at 0.7 nM; in [9], 16 nM. Besides, the pKi in [5] is 7.18; in [8], 6.95; in [12], 9.28.
In the case of `CC(=N)NCCc1ccc2[nH]c3c(c2c1)C[C@@]1(O)C2Cc4ccc(O)c5c4[C@@]1(CCN2CC1CC1)[C@H]3O5`, the Ratio in assay [1] was determined as 27; in [14], 65. For the same molecule, the IC50 ratio is 72.1 in assay [2], 14.1 in [10] and 6.4 in assay [11]. Also, the values for the Ke in [4] and in assay [9] were 0.3 nM and 7.6 nM, respectively.
On to `N/C(S)=N/c1ccc2[nH]c3c(c2c1)C[C@@]1(O)C2Cc4ccc(O)c5c4[C@@]1(CCN2CC1CC1)[C@H]3O5`, for which the Ratio in [1] was 5.3; in [6], 12. Also, the results for the IC50 ratio in assay [2], in assay [10] and in [11] were 14.9, 3.6 and 1.3, respectively. The values for the Ke in assay [4] and in assay [9] were 7.2 nM and 38 nM, respectively.
Consider `N=C(N)/N=C(\N)Nc1ccc2[nH]c3c(c2c1)C[C@@]1(O)C2Cc4ccc(O)c5c4[C@@]1(CCN2CC1CC1)[C@H]3O5`, for which the Ratio was 74 in assay [1], 478 in [3], 512 in assay [6] and 95 in assay [7]. Also, the IC50 ratio came to 512 in assay [2], 7.9 in assay [10] and 0.41 in assay [11]. Further, the Ke was 0.2 nM in assay [4] and 14 nM in [9].
On to `Nc1ccc2[nH]c3c(c2c1)C[C@@]1(O)C2Cc4ccc(O)c5c4[C@@]1(CCN2CC1CC1)[C@H]3O5`, for which the IC50 ratio in assay [2] is 4; in assay [10] it was 2.8; in assay [11] it was 10.3. Also, the values for the Ratio in assay [6] and in assay [13] were 0.4 and 1.5, respectively. Also, in assay [9], the Ke was 57 nM.
As for `CN1CC[C@]23c4c5ccc(O)c4O[C@H]2c2[nH]c4ccc(NC(=N)N)cc4c2C[C@@]3(O)C1C5`, the values for the IC50 ratio in assay [2], in assay [10] and in assay [11] were 6.8, 1.1 and 1.7, respectively. For the same molecule, the Ratio in assay [3] is above 3530; in [6], 4.1; in assay [7] it was 310; in [13], 6.3. Moreover, in assay [4], the Ke was 17 nM.
